# Assay results taken from ChEMBL document CHEMBL5678818, “Discovery of potent SOS1 inhibitors that block RAS activation via disruption of the RAS-SOS1 interaction” (Proc Natl Acad Sci U S A, 2019).
# Key:
# [1] = target: Receptor tyrosine-protein kinase erbB-4 (Homo sapiens) (UniProt Q15303); experiment: Inhibition of ERBB4 (unknown origin) assessed as residual activity at 1000 nM by KINOMEscan analysis relative to control
# [2] = target: T1, Dual specificity mitogen-activated protein kinase kinase 4 (Homo sapiens) (UniProt P45985); experiment: Inhibition of MEK4 (unknown origin) assessed as residual activity at 1000 nM by KINOMEscan analysis relative to control
# T1 sequence (whole entry): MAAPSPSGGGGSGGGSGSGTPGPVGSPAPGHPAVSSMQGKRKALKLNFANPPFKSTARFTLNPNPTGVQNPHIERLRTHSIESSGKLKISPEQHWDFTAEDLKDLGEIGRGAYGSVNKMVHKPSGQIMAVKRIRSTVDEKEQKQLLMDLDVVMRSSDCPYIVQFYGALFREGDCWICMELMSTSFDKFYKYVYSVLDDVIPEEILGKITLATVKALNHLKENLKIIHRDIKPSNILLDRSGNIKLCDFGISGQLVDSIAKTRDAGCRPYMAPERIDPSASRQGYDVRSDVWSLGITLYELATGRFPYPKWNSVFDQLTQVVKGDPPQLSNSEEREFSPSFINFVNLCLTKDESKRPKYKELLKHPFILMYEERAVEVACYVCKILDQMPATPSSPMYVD
# [3] = target: T2, Serine/threonine-protein kinase DCLK1 (Homo sapiens) (UniProt O15075); experiment: Inhibition of DCAMKL1 (unknown origin) assessed as residual activity at 1000 nM by KINOMEscan analysis relative to control
# T2 sequence (whole entry): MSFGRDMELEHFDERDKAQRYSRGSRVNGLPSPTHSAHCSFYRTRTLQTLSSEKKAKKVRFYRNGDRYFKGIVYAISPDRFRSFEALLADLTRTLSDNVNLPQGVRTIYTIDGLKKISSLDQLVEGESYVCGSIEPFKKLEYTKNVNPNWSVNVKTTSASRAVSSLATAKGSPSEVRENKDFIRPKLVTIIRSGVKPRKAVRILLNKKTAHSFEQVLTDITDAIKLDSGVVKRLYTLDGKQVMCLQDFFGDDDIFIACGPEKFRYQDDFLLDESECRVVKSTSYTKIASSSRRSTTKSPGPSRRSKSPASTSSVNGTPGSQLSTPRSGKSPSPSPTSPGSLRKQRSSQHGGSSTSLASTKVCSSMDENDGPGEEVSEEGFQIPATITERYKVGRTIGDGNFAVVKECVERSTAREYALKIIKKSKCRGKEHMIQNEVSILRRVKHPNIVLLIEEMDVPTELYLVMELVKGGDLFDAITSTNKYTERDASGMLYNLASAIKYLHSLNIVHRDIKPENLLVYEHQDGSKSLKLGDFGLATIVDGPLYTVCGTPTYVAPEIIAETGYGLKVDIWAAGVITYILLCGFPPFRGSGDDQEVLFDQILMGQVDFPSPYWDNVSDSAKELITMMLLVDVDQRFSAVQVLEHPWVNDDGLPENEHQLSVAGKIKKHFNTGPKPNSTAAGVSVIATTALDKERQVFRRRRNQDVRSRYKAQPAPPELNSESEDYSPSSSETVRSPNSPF
# [4] = target: T3, Uncharacterized serine/threonine-protein kinase SBK3 (Homo sapiens) (UniProt P0C264); experiment: Inhibition of SgK110 (unknown origin) assessed as residual activity at 1000 nM by KINOMEscan analysis relative to control
# T3 sequence (whole entry): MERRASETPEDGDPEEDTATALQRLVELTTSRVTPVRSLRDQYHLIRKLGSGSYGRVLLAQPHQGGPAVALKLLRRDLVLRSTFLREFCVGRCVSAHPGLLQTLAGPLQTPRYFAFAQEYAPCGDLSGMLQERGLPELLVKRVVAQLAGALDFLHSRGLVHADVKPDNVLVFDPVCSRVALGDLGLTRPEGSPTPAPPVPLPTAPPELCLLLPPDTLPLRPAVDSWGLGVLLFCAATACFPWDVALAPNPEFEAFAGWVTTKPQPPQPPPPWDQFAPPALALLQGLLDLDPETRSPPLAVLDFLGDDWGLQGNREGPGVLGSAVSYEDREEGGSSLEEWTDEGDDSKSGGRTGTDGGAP
# [5] = target: T4, Atypical kinase COQ8B, mitochondrial (Homo sapiens) (UniProt Q96D53); experiment: Inhibition of ADCK4 (unknown origin) assessed as residual activity at 1000 nM by KINOMEscan analysis relative to control
# T4 sequence (whole entry): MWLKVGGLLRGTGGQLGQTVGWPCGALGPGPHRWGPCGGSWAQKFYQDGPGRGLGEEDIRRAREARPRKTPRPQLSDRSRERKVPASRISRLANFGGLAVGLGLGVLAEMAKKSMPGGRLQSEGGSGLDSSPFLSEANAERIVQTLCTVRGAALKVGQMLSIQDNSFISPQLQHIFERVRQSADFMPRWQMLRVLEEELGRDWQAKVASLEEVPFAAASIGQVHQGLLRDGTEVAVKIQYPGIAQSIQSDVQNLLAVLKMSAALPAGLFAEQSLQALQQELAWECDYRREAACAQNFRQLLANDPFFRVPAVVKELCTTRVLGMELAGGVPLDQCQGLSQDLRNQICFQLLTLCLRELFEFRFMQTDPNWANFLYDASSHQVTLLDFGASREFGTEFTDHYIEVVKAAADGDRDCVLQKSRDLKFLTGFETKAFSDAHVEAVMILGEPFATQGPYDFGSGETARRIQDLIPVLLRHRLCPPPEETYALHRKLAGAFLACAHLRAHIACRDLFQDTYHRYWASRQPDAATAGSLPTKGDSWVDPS
# Receptor tyrosine-protein kinase erbB-4 (Homo sapiens), sequence (Q15303 whole entry): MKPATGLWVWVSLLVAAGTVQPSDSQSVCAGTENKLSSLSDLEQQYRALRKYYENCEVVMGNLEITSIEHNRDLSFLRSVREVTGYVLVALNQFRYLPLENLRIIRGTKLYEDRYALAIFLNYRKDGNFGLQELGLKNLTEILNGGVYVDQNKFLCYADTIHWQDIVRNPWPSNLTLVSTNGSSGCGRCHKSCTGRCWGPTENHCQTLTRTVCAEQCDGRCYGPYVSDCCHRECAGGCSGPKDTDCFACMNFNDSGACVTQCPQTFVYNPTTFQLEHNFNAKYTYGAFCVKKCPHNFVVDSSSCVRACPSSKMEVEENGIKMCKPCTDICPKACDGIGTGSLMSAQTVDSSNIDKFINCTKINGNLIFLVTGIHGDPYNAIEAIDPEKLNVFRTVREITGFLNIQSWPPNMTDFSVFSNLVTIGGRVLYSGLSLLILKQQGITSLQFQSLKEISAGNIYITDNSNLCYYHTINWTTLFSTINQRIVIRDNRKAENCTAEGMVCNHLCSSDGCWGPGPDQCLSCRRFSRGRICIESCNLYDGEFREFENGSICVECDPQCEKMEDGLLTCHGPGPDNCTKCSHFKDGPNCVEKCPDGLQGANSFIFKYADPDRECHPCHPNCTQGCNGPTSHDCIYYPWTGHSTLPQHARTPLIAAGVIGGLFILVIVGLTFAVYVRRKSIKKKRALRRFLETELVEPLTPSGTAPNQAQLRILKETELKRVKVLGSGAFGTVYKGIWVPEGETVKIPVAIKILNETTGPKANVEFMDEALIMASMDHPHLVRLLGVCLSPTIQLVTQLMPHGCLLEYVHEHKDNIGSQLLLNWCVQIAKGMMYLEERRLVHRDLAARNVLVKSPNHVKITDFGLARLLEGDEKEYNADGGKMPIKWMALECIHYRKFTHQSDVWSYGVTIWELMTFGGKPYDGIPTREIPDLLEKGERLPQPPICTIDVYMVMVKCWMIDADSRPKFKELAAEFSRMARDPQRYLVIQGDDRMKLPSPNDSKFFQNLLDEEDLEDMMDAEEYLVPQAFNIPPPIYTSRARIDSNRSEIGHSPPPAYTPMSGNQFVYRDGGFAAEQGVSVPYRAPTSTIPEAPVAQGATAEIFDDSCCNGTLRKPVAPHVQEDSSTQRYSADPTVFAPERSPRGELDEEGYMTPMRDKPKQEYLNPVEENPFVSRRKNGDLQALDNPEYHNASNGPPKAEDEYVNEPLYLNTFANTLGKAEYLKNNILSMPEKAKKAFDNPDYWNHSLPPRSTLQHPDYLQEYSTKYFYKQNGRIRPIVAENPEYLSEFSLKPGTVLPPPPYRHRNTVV
Structure (SMILES),Activity [1] [%],Activity [2] [%],Activity [3] [%],Activity [4] [%],Activity [5] [%]
COc1cc2nc(C)nc(N[C@H](C)c3cccc(-c4cn[nH]c4)c3)c2cc1OC,89,100,64,100,89
COc1cc2ncnc(N[C@H](C)c3cccc4ccccc34)c2cc1OC,46,97,76,100,100
